According to patent publication US20230089867A1, “CYCLIC PENTAMER COMPOUNDS AS PROPROTEIN CONVERTASE SUBTILISIN/KEXIN TYPE 9 (PCSK9) INHIBITORS FOR THE TREATMENT OF METABOLIC DISORDER” (Novartis AG, priority 2018, published 2023):

Biological target: human PCSK9 (Homo sapiens, UniProt Q8NBP7)
Test: PCSK9 ligand binding TR-FRET assay (interference with binding of human PCSK9 to human LDLR)
Conditions: for Max % inhibition: PCSK9 FRET assay, efficacy (Amax), 100% = 1 uM unlabeled human PCSK9, 0% = DMSO; for IC50: TR-FRET, human PCSK9 Alexa Fluor 647 / human LDLR extracellular domain-Europium Kryptate, read-out: PCSK9 FRET Assay IC50
Outline: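 Threefold compound dilutions were pre-incubated 30 min with PCSK9, after which 4 nM Europium Kryptate-tagged human LDLR ectodomain was added for a further 2 h.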

Sequence of human PCSK9 (Q8NBP7 153-692): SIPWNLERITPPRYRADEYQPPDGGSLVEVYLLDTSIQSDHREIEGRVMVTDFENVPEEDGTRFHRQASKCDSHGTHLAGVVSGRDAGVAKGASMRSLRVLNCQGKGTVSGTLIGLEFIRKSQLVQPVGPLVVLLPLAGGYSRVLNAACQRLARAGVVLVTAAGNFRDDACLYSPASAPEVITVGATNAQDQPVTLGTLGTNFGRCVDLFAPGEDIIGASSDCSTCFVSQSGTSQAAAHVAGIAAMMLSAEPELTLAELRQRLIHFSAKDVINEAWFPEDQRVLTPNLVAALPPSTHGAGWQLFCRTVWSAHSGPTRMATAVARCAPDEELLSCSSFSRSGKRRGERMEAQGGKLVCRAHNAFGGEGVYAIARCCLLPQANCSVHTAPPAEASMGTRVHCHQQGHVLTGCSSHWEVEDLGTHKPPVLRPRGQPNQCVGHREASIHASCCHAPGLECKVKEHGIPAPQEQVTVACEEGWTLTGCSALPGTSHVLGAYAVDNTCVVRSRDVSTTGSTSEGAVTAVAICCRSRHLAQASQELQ
Sequence of human PCSK9 (Q8NBP7 31-152 partner limits assumed): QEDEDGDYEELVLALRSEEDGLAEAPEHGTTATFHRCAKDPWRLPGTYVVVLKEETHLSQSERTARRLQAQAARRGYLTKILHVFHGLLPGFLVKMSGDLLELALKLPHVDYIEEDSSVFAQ

Row | Max % inhibition [%] | IC50 [nM] | Structure (SMILES)
1 | 97.97 | 107 | COC[C@@H]1NC(=O)[C@H](CCCN)N(Cc2ccc(Cl)cc2Oc2ccc(-c3cnc(CN(C)C)n3C)cc2)C(=O)C[C@@H](Cc2ccccc2)C(=O)N(C)[C@@H](C)CNC(=O)C[C@H](Cc2ccc(Cl)cc2)N(C)C1=O [Compound 192, (2S,5S,8S,13S,16R)-2-(3-aminopropyl)-16-benzyl-1-(4-chloro-2-(4-(2-((dimethylamino)methyl)-1-methyl-1H-imidazol-5-yl)phenoxy)benzyl)-8-(4-chlorobenzyl)-5-(methoxymethyl)-7,13,14-trimethyl-1,4,7,11,14-pentaazacyclooctadecane-3,6,10,15,18-pentaone]
2 | 98.10 | 4.9 | CC[C@H]1C(=O)N[C@@H](COC)C(=O)N(C)[C@@H](Cc2ccc(Cl)c(F)c2)CC(=O)NC[C@H](C)N(C)C(=O)[C@H](Cc2ccccc2)CC(=O)N1Cc1ccc(Cl)cc1Oc1ccc(-c2cnc(CN(C)C)n2C)cc1 [Compound 209, (2S,5S,8S,13S,16R)-16-benzyl-1-(4-chloro-2-(4-(2-((dimethylamino)methyl)-1-methyl-1H-imidazol-5-yl)phenoxy)benzyl)-8-(4-chloro-3-fluorobenzyl)-2-ethyl-5-(methoxymethyl)-7,13,14-trimethyl-1,4,7,11,14-pentaazacyclooctadecane-3,6,10,15,18-pentaone]
3 | 94.48 | 6.3 | COC[C@@H]1NC(=O)[C@H](C)N(Cc2ccc(Cl)cc2Oc2ccc(-c3nnc4n3CCN(C(=O)[C@@H]3CCNC3)C4)cc2)C(=O)C[C@@H](Cc2ccccc2)C(=O)N(C)[C@@H](C)CNC(=O)C[C@H](Cc2ccc(Cl)cc2)N(C)C1=O [Compound 129, (2S,5S,8S,13S,16R)-16-benzyl-1-(4-chloro-2-(4-(7-((R)-pyrrolidine-3-carbonyl)-5,6,7,8-tetrahydro-[1,2,4]triazolo[4,3-a]pyrazin-3-yl)phenoxy)benzyl)-8-(4-chlorobenzyl)-5-(methoxymethyl)-2,7,13,14-tetramethyl-1,4,7,11,14-pentaazacyclooctadecane-3,6,10,15,18-pentaone]
4 | 95.15 | 650 | COC[C@@H]1NC(=O)[C@H](C)N(Cc2ccc(Cl)cc2Oc2ccc(-c3cnc(CN(C)C)n3C)cc2)C(=O)C[C@@H](Cc2ccccc2)C(=O)N(C)[C@@H]2CCOC[C@H]2NC(=O)C[C@H](Cc2ccc(Cl)cc2)N(C)C1=O [Compound 224, (4S,7S,10S,14R,16aR,20aS)-14-benzyl-11-(4-chloro-2-(4-(2-((dimethylamino)methyl)-1-methyl-1H-imidazol-5-yl)phenoxy)benzyl)-4-(4-chlorobenzyl)-7-(methoxymethyl)-5,10,16-trimethyltetradecahydro-1H-pyrano[3,4-l][1,4,7,11,14]pentaazacyclooctadecine-2,6,9,12,15(3H)-pentaone]
5 | 98.35 | 1.4 | CNC(=O)C[C@@H]1NC(=O)[C@H](C)N(Cc2ccc(Cl)cc2Oc2ccc(-c3cnc(CN(C)C)n3C)cc2)C(=O)C[C@@H](Cc2ccccc2)C(=O)N(C)[C@@H](C)CNC(=O)C[C@H](Cc2ccc(Cl)cc2)N(C)C1=O [Compound 221, 2-((2S,5S,8S,13S,16R)-16-benzyl-1-(4-chloro-2-(4-(2-((dimethylamino)methyl)-1-methyl-1H-imidazol-5-yl)phenoxy)benzyl)-8-(4-chlorobenzyl)-2,7,13,14-tetramethyl-3,6,10,15,18-pentaoxo-1,4,7,11,14-pentaazacyclooctadecan-5-yl)-N-methylacetamide]
6 | 102.55 | 5.8 | COC[C@@H]1NC(=O)[C@H](CCC(=O)N2CCOCC2)N(Cc2ccc(Cl)cc2Oc2ccc(-c3cnc(CN(C)C)n3C)cc2)C(=O)C[C@@H](Cc2ccccc2)C(=O)N(C)[C@@H](C)CNC(=O)C[C@H](Cc2ccc(Cl)cc2)N(C)C1=O [Compound 175, (2S,5S,8S,13S,16R)-16-benzyl-1-(4-chloro-2-(4-(2-((dimethylamino)methyl)-1-methyl-1H-imidazol-5-yl)phenoxy)benzyl)-8-(4-chlorobenzyl)-5-(methoxymethyl)-7,13,14-trimethyl-2-(3-morpholino-3-oxopropyl)-1,4,7,11,14-pentaazacyclooctadecane-3,6,10,15,18-pentaone]
7 | 97.43 | 33.2 | COC[C@@H]1NC(=O)[C@H](C)N(Cc2ncccc2Oc2ccc(-c3cnc(CN(C)C)n3C)cc2)C(=O)C[C@@H](Cc2ccccc2)C(=O)N(C)[C@@H](C)CNC(=O)C[C@H](Cc2ccc(Cl)cc2)N(C)C1=O [Compound 214, (2S,5S,8S,13S,16R)-16-benzyl-8-(4-chlorobenzyl)-1-((3-(4-(2-((dimethylamino)methyl)-1-methyl-1H-imidazol-5-yl)phenoxy)pyridin-2-yl)methyl)-5-(methoxymethyl)-2,7,13,14-tetramethyl-1,4,7,11,14-pentaazacyclooctadecane-3,6,10,15,18-pentaone]

Continued, compound first:

Row | Structure (SMILES) | Max % inhibition [%] | IC50 [nM]
8 | COC[C@@H]1NC(=O)[C@H](CCC(=O)N2CCOCC2)N(Cc2ccc(Cl)cc2Oc2ccc(-c3cnc(CN(C)C)n3C)cc2)C(=O)C[C@@H](Cc2ccccc2)C(=O)N(C)[C@H]2CCCC[C@@H]2NC(=O)C[C@H](Cc2ccc(Cl)cc2)N(C)C1=O [Compound 93, (4S,7S,10S,14R,16aS,20aS)-14-benzyl-11-(4-chloro-2-(4-(2-((dimethylamino)methyl)-1-methyl-1H-imidazol-5-yl)phenoxy)benzyl)-4-(4-chlorobenzyl)-7-(methoxymethyl)-5,16-dimethyl-10-(3-morpholino-3-oxopropyl)hexadecahydrobenzo[l][1,4,7,11,14]pentaazacyclooctadecine-2,6,9,12,15(3H)-pentaone] | 96.70 | 6.3
9 | COC[C@@H]1NC(=O)[C@H](C)N(Cc2ccc(Cl)cc2Oc2ccc(-c3cnc(CN4CCCC4)n3C)cc2)C(=O)C[C@@H](Cc2ccccc2)C(=O)N(C)[C@@H](C)[C@H](C)NC(=O)C[C@H](Cc2ccc(Cl)cc2)N(C)C1=O [Compound 198, (2S,5S,8S,12S,13S,16R)-16-benzyl-1-(4-chloro-2-(4-(1-methyl-2-(pyrrolidin-1-ylmethyl)-1H-imidazol-5-yl)phenoxy)benzyl)-8-(4-chlorobenzyl)-5-(methoxymethyl)-2,7,12,13,14-pentamethyl-1,4,7,11,14-pentaazacyclooctadecane-3,6,10,15,18-pentaone] | 98.27 | 0.6
10 | COC[C@@H]1NC(=O)[C@H](CCCN2CC(F)(F)C(F)(F)C2)N(Cc2ccc(Cl)cc2Oc2ccc(-c3cnc(CN(C)C)n3C)cc2)C(=O)C[C@@H](Cc2ccccc2)C(=O)N(C)[C@H]2CCCC[C@@H]2NC(=O)C[C@H](Cc2ccc(Cl)cc2)N(C)C1=O [Compound 254, (4S,7S,10S,14R,16aS,20aS)-14-benzyl-11-(4-chloro-2-(4-(2-((dimethylamino)methyl)-1-methyl-1H-imidazol-5-yl)phenoxy)benzyl)-4-(4-chlorobenzyl)-7-(methoxy-methyl)-5,16-dimethyl-10-(3-(3,3,4,4-tetrafluoropyrrolidin-1-yl)propyl)hexadecahydro-benzo[l][1,4,7,11,14]pentaazacyclooctadecine-2,6,9,12,15(3H)-pentaone] | 102.70 | 3
11 | COC[C@@H]1NC(=O)[C@H](C)N(Cc2ccc(Cl)cc2Oc2ccc(-c3cnc(CN4CCCC4)n3C)cc2)C(=O)C[C@@H](Cc2ccc(F)cc2)C(=O)N(C)[C@@H](C)CNC(=O)C[C@H](Cc2ccc(Cl)cc2)N(C)C1=O [Compound 108, (2S,5S,8S,13S,16R)-1-(4-chloro-2-(4-(1-methyl-2-(pyrrolidin-1-ylmethyl)-1H-imidazol-5-yl)phenoxy)benzyl)-8-(4-chlorobenzyl)-16-(4-fluorobenzyl)-5-(methoxymethyl)-2,7,13,14-tetramethyl-1,4,7,11,14-pentaazacyclooctadecane-3,6,10,15,18-pentaone] | 99.73 | 0.7
12 | COC[C@@H]1NC(=O)[C@H](C)N(Cc2ccc(Cl)cc2Oc2ccc(-c3cnc4n3CCN(C(=O)[C@@H]3CCOC3)C4)cc2)C(=O)C[C@@H](Cc2ccccc2)C(=O)N(C)[C@@H](C)CNC(=O)C[C@H](Cc2ccc(Cl)cc2)N(C)C1=O [Compound 171, (2S,5S,8S,13S,16R)-16-benzyl-1-(4-chloro-2-(4-(7-((R)-tetrahydrofuran-3-carbonyl)-5,6,7,8-tetrahydroimidazo[1,2-a]pyrazin-3-yl)phenoxy)benzyl)-8-(4-chlorobenzyl)-5-(methoxymethyl)-2,7,13,14-tetramethyl-1,4,7,11,14-pentaazacyclooctadecane-3,6,10,15,18-pentaone] | 91.76 | 3.1
13 | Cc1c(CN(C)C)ncn1-c1ccc(Oc2cc(Cl)ccc2CN2C(=O)C[C@@H](Cc3ccccc3)C(=O)N(C)[C@H]3CCCC[C@@H]3NC(=O)C[C@H](Cc3ccc(Cl)cc3)N(C)C(=O)[C@H](CO)NC(=O)[C@@H]2C)cc1 [Compound 278, (4S,7S,10S,14R,16aS,20aS)-14-benzyl-11-(4-chloro-2-(4-(4-((dimethylamino)methyl)-5-methyl-1H-imidazol-1-yl)phenoxy)benzyl)-4-(4-chlorobenzyl)-7-(hydroxymethyl)-5,10,16-trimethylhexadecahydrobenzo[l][1,4,7,11,14]pentaazacyclooctadecine-2,6,9,12,15(3H)-pentaone] | 107.17 | 1.3
14 | CCC/C=C/c1ncc(-c2ccc(Oc3cc(Cl)ccc3CN3C(=O)C[C@@H](Cc4ccccc4)C(=O)N(C)[C@@H](C)CNC(=O)C[C@H](Cc4ccc(Cl)cc4)N(C)C(=O)[C@H](COC)NC(=O)[C@@H]3C)cc2)n1C [Compound 81, (2S,5S,8S,13S,16R)-16-benzyl-1-(4-chloro-2-(4-(1-methyl-2-((E)-pent-1-en-1-yl)-1H-imidazol-5-yl)phenoxy)benzyl)-8-(4-chlorobenzyl)-5-(methoxymethyl)-2,7,13,14-tetramethyl-1,4,7,11,14-pentaazacyclooctadecane-3,6,10,15,18-pentaone] | 87.86 | 34.5
